# In patent US7473790B2 (Pfizer Inc., priority 2003, dated 2009):
# pIC50: −log10 of the molar value.
# Target: T1, HCV polymerase (Hepatitis C virus genotype 1b, UniProt P26663)
# T1 construct: 2.5 pmoles (0.15 μg) HCV polymerase protein in a final volume of 75 μL
# Test: HCV polymerase primer/template-directed transcription assay (32P-GTP incorporation, filter binding)
# Format: biochemical
# Conditions: @ 50 uM compound; given where IC50 was impractical to calculate; read-out: percent inhibition
# Procedure: The compounds described herein were tested for activity with HCV polymerase. Recombinant HCV polymerase was tested for its ability to perform primer/template-directed transcription in assays that contained 30 mM tris-HCl pH 7.2, 10 mM MgCl2, 20 mM NaCl, 1 mM Dithiothreitol (DTT), 0.05% Tween-20, 1% glycerol, 5 pmoles biotin-dG12 (primer), 0.5 pmoles poly(rC)300 (template), 1 μM GTP, 0.1-0.3 uCi α-^32P-GTP, and 2.5 pmoles (0.15 μg) HCV polymerase protein in a final volume of 75 μL. Reactions were initiated by addition of enzyme and incubated 30 minutes at 30° C. Reactions were stopped by addition of 33 mM EDTA, and polynucleotide products were collected by filtration through Diethylaminoethyl (DE) Filtermat papers (Wallac). Unincorporated triphosphate was removed by washing the filters with 5% dibasic sodium phosphate. The filters were counted in a Packard Tri-Lux Microbeta scintillation counter (Packard Bioscience, Meriden, Conn.). Compounds to be tested were added at various concentrations, e.g., 1 μm to 50 μm, from stocks in 10% DMSO-water (final DMSO is 1% in reaction).
# IC50 values were estimated from the primary cpm data (collected in triplicate) using the formula: cpm (I)=cpm(no inhibitor)(1−([I]/([I]+IC50))). An IC50 value represents the concentration (in μM) of a compound that provides 50% inhibition of polymerase-directed transcription in the above assay. A percent inhibition value is expressed for a compound where it was impractical to calculate an IC50 value with available data. If the IC50 estimated by the above equation was less than 200 nM, it was recalculated using the following equation, which takes into account the enzyme concentration (30 nM) in the assay: cpm(I)=cpm(no inhibitor)(1−((((I+IC50+30e−9)−sqrt(((I+IC50+30e−9)^2)−4×30e−9×I)))/((2)(30e−9))). Curve fitting was performed using the program KaleidaGraph (Synergy Software, Reading, Pa.).
# T1 sequence (P26663 2420-3010): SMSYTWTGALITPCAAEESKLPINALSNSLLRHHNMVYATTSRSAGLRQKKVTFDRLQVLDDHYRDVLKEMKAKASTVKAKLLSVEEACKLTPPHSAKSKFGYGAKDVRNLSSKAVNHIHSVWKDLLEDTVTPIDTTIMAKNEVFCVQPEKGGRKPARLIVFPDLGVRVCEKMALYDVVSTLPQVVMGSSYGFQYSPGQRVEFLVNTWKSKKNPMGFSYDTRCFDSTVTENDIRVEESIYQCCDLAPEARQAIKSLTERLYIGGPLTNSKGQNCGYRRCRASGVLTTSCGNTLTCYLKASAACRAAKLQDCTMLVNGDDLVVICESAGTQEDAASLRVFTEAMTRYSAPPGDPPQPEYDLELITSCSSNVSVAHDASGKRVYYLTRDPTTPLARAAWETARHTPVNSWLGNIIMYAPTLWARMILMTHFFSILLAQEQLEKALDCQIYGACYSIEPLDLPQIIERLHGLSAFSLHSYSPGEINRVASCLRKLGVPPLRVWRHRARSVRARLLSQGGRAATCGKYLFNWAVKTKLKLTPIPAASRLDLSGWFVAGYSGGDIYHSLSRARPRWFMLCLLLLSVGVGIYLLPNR
row,SMILES,inhibition at 50 µM [%]
1,"O=C1CC(=O)OC(CCN2CCCC2=O)(C2CCCC2)C1 (centres unmarked) [A(14), 6-Cyclopentyl-6-[2-(2-oxo-pyrrolidin-1-yl)-ethyl]-dihydro-pyran-2,4-dione]",35
2,"CC(=O)n1nc(C)c(CCC2(C3CCCC3)CC(=O)CC(=O)O2)c1C (centres unmarked) [A(19), 6-[2-(1-Acetyl-3,5-dimethyl-1H-pyrazol-4-yl)-ethyl]-6-cyclopentyl-dihydro-pyran-2,4-dione]",37

# Same assay, conditions: recombinant HCV polymerase; 30 minutes at 30° C.; concentration giving 50% inhibition of polymerase-directed transcription; read-out: IC50
row,SMILES,pIC50
1,"CCc1ccc(O)c(CCC2(C3CCCC3)CC(O)=C(Cc3nc4ncc(C)cn4n3)C(=O)O2)c1 (single isomer, unassigned; enantiomer 1) [A(174), Enantiomer 1 of 6-Cyclopentyl-6-[2-(5-ethyl-2-hydroxy-phenyl)-ethyl]-4-hydroxy-3-(6-methyl-[1,2,4]triazolo[1,5-a]pyrimidin-2-ylmethyl)-5,6-dihydro-pyran-2-one]",8.22
2,"CCc1ccc(O)c(CCC2(C3CCCC3)CC(O)=C(Cc3nc4nc(C)cc(C)n4n3)C(=O)O2)c1 (single isomer, unassigned; enantiomer 2) [A(168), Enantiomer 2 of 6-Cyclopentyl-3-(5,7-dimethyl-[1,2,4]triazolo[1,5-a]pyrimidin-2-ylmethyl)-6-[2-(5-ethyl-2-hydroxy-phenyl)-ethyl]-4-hydroxy-5,6-dihydro-pyran-2-one]",8.05
3,"CCc1ccc(O)c(CCC2(C3CCCC3)CC(O)=C(Cc3nc4ncc(Cl)cn4n3)C(=O)O2)c1 (single isomer, unassigned; enantiomer 2) [A(172), Enantiomer 2 of 3-(6-Chloro-[1,2,4]triazolo[1,5-a]pyrimidin-2-ylmethyl)-6-cyclopentyl-6-[2-(5-ethyl-2-hydroxy-phenyl)-ethyl]-4-hydroxy-5,6-dihydro-pyran-2-one]",8.22
4,"CCc1ccc(O)c(CCC2(C3CCCC3)CC(O)=C(Cc3nc4ncc(C)cn4n3)C(=O)O2)c1 (single isomer, unassigned; enantiomer 2) [A(175), Enantiomer 2 of 6-Cyclopentyl-6-[2-(5-ethyl-2-hydroxy-phenyl)-ethyl]-4-hydroxy-3-(6-methyl-[1,2,4]triazolo[1,5-a]pyrimidin-2-ylmethyl)-5,6-dihydro-pyran-2-one]",8.05
5,"Cc1cc(C)n2nc(CC3=C(O)CC(CCc4ccc(C(C)(C)O)c(F)c4)(C4CCCC4)OC3=O)nc2n1 (single isomer, unassigned; enantiomer a) [A(218), 6-cyclopentyl-3-[(5,7-dimethyl[1,2,4]triazolo[1,5-a]pyrimidin-2-yl)methyl]-6-{2-[3-fluoro-4-(1-hydroxy-1-methylethyl)phenyl]ethyl}-4-hydroxy-5,6-dihydro-2H-pyran-2-one (enantiomer A)]",7.21
6,"Cc1cc(C)n2nc(CC3=C(O)CC(CCc4ccc(C(C)(C)O)c(F)c4)(C4CCCC4)OC3=O)nc2n1 (single isomer, unassigned; enantiomer b) [A(219), 6-cyclopentyl-3-[(5,7-dimethyl[1,2,4]triazolo[1,5-a]pyrimidin-2-yl)methyl]-6-{2-[3-fluoro-4-(1-hydroxy-1-methylethyl)phenyl]ethyl}-4-hydroxy-5,6-dihydro-2H-pyran-2-one (enantiomer B)]",7.06
7,"Cc1cc(C)n2nc(CC3=C(O)CC(CCc4ccc([C@@H](C)O)c(F)c4)(C4CCCC4)OC3=O)nc2n1 (stereo in doubt) [B(114), 6-Cyclopentyl-3-(5,7-dimethyl-[1,2,4]triazolo[1,5-a]pyrimidin-2-ylmethyl)-6-{2-[3-fluoro-4-(1-hydroxy-ethyl)-phenyl]-ethyl}-4-hydroxy-5,6-dihydro-pyran-2-one]",7.80
8,"C[C@@H](O)c1ccc(CCC2(C3CCCC3)CC(O)=C(Cc3nc4ncc(Cl)cn4n3)C(=O)O2)cc1F (stereo in doubt) [B(116), 3-(6-Chloro-[1,2,4]triazolo[1,5-a]pyrimidin-2-ylmethyl)-6-cyclopentyl-6-{2-[3-fluoro-4-(1-hydroxy-ethyl)-phenyl]-ethyl}-4-hydroxy-5,6-dihydro-pyran-2-one]",7.96
9,"COc1ccc(CCC2(C3CCCC3)CC(O)=C(Cc3nc4nc(C)cc(C)n4n3)C(=O)O2)cc1[C@@H](C)O (stereo in doubt) [B(120), 6-Cyclopentyl-3-(5,7-dimethyl-[1,2,4]triazolo[1,5-a]pyrimidin-2-ylmethyl)-4-hydroxy-6-{2-[3-(1-hydroxy-ethyl)-4-methoxy-phenyl]-ethyl}-5,6-dihydro-pyran-2-one]",7.92
10,"CCn1cc(CCC2(C3CCCC3)CC(=O)CC(=O)O2)ccc1=O (centres unmarked) [A(01), 6-Cyclopentyl-6-[2-(1-ethyl-6-oxo-1,6-dihydro-pyridin-3-yl)-ethyl]-dihydro-pyran-2,4-dione]",4.42
11,"CC(C)(C)c1cc(CCC2(C3CCCC3)CC(=O)CC(=O)O2)ccc1O (centres unmarked) [A(02), 6-[2-(3-tert-Butyl-4-hydroxy-phenyl)-ethyl]-6-cyclopentyl-dihydro-pyran-2,4-dione]",5.62
12,"CCOc1ccc(CCC2(C3CCCC3)CC(=O)CC(=O)O2)cc1C (centres unmarked) [A(03), 6-Cyclopentyl-6-[2-(4-ethoxy-3-methyl-phenyl)-ethyl]-dihydro-pyran-2,4-dione]",5.37
13,"Cc1cc(CCC2(C3CCCC3)CC(=O)CC(=O)O2)ccc1OC(C)C (centres unmarked) [A(04), 6-Cyclopentyl-6-[2-(4-isopropoxy-3-methyl-phenyl)-ethyl]-dihydro-pyran-2,4-dione]",5.25
14,"O=C1CC(=O)OC(CCc2ccc(OCC(F)(F)F)c(Cl)c2)(C2CCCC2)C1 (centres unmarked) [A(05), 6-{2-[3-Chloro-4-(2,2,2-trifluoro-ethoxy)-phenyl]-ethyl}-6-cyclopentyl-dihydro-pyran-2,4-dione]",5.29
15,"COc1ccc(SCC2(C3CCCC3)CC(=O)CC(=O)O2)cc1 (centres unmarked) [A(06), 6-Cyclopentyl-6-(4-methoxy-phenylsulfanylmethyl)-dihydro-pyran-2,4-dione]",4.63
16,"CC(=O)Nc1ccc(CCC2(C3CCCC3)CC(=O)CC(=O)O2)cc1F (centres unmarked) [A(07), N-{4-[2-(2-Cyclopentyl-4,6-dioxo-tetrahydro-pyran-2-yl)-ethyl]-2-fluoro-phenyl}-acetamide]",4.87
17,"COCc1ccc(CCC2(C3CCCC3)CC(=O)CC(=O)O2)cc1F (centres unmarked) [A(08), 6-Cyclopentyl-6-[2-(3-fluoro-4-methoxymethyl-phenyl)-ethyl]-dihydro-pyran-2,4-dione]",5.22
18,"O=C1CC(=O)OC(CCc2ccc(-c3ccccc3)c(F)c2)(C2CCCC2)C1 (centres unmarked) [A(09), 6-Cyclopentyl-6-[2-(2-fluoro-biphenyl-4-yl)-ethyl]-dihydro-pyran-2,4-dione]",5.26
19,"O=C1CC(=O)OC(CCc2ccc(-c3cc4ccccc4s3)c(F)c2)(C2CCCC2)C1 (centres unmarked) [A(10), 6-[2-(4-Benzo[b]thiophen-2-yl-3-fluoro-phenyl)-ethyl]-6-cyclopentyl-dihydro-pyran-2,4-dione]",5.09
20,"CNC(=O)c1ccc(CCC2(C3CCCC3)CC(=O)CC(=O)O2)cc1F (centres unmarked) [A(11), 4-[2-(2-Cyclopentyl-4,6-dioxo-tetrahydro-pyran-2-yl)-ethyl]-2-fluoro-N-methyl-benzamide]",4.78
21,"Cc1ccc(-c2ccc(CCC3(C4CCCC4)CC(=O)CC(=O)O3)cc2F)s1 (centres unmarked) [A(12), 6-Cyclopentyl-6-{2-[3-fluoro-4-(5-methyl-thiophen-2-yl)-phenyl]-ethyl}-dihydro-pyran-2,4-dione]",4.74
22,"O=C1CC(=O)OC(CCC2=CCCCC2)(C2CCCC2)C1 (centres unmarked) [A(13), 6-(2-Cyclohex-1-enyl-ethyl)-6-cyclopentyl-dihydro-pyran-2,4-dione]",4.20
23,"Cc1nc(-c2ccc(CCC3(C4CCCC4)CC(=O)CC(=O)O3)cc2F)no1 (centres unmarked) [A(15), 6-Cyclopentyl-6-{2-[3-fluoro-4-(5-methyl-[1,2,4]oxadiazol-3-yl)-phenyl]-ethyl}-dihydro-pyran-2,4-dione]",5.36
24,"CN(C)C(=O)c1ccc(CCC2(C3CCCC3)CC(=O)CC(=O)O2)cc1F (centres unmarked) [A(16), 4-[2-(2-Cyclopentyl-4,6-dioxo-tetrahydro-pyran-2-yl)-ethyl]-2-fluoro-N,N-dimethyl-benzamide]",4.84
25,"CCNC(=O)c1ccc(CCC2(C3CCCC3)CC(=O)CC(=O)O2)cc1F (centres unmarked) [A(17), 4-[2-(2-Cyclopentyl-4,6-dioxo-tetrahydro-pyran-2-yl)-ethyl]-N-ethyl-2-fluoro-benzamide]",4.64
26,"Cc1noc(C)c1-c1ccc(CCC2(C3CCCC3)CC(=O)CC(=O)O2)cc1 (centres unmarked) [A(18), 6-Cyclopentyl-6-{2-[4-(3,5-dimethyl-isoxazol-4-yl)-phenyl]-ethyl}-dihydro-pyran-2,4-dione]",5.51
27,"CCc1cc(CCC2(C3CCCC3)CC(=O)CC(=O)O2)ccc1O (centres unmarked) [A(22), 6-Cyclopentyl-6-[2-(3-ethyl-4-hydroxy-phenyl)-ethyl]-dihydro-pyran-2,4-dione]",6.52
